The test system of one test is postmenopausal women. The settings on record: taken together with supplemental hormones; 202 postmenopausal women; cited from earlier work.
For test [1], the system named is men with testosterone levels below normal. Briefly: Example 2: 12-month treatment of 50 men with testosterone levels below normal and secondary infertility; Global efficacy questionnaire on erection. It counts as in vivo, human. The settings on record: after 1 month treatment with L-arginine (only). The protocol: In the department of Dr. Stanislavov and Dr. Nikolova 50 men aged between 45-60 with testosterone levels below normal were treated daily with • Pycnogenol® 120 mg • L-arginine (Sargenor) 1.71 g • Testosterone undecanoate 120 mg • over a period of 12 months because of secondary infertility.

Test [2] has as its system men with erectile dysfunction. Briefly: Clinical study of arginine aspartate (Sargenor) alone and with Pycnogenol in 40 men with erectile dysfunction. Format: in vivo, human. The protocol:
A clinical study was conducted on forty participants who had erectile dysfunction. The study involved the effect of taking arginine asparatate, which is a salt of arginine with aspartic acid. One gram of arginine asparatate contains 566.85 mg of arginine.
The participants were grouped according to their variant of disturbed erection. The variants are in five categories: weakened, delayed, hesitating, losing and normal. The “weakened” variant signifies that the penis increases in size and becomes hard to a certain extent, but it is not enough to enter the vagina. The “delayed” variant signifies that if it is possible for the penis to become hard enough to enter the vagina, but such may require additional time. The “hesitating” variant signifies that before or after sexual contact, the erection is unstable and thus makes the sexual intercourse more difficult. The “losing” variant signifies that during the love game there is good erection, but such is lost when trying to make contact or during intercourse. The “normal” variant signifies that no appreciable disturbed erection was present.
The clinical study was over three months. During the first month, only 3 doses of 1000 milligrams (mg) of arginine asparatate (Sargenor) were administered daily to each participant. By the end of the first month, there was improvement in erectile dysfunction in about 10% of the participants. During the second month, 2 doses of 40 mg of Pycnogenol® food supplement were administered daily to each participant, together with the 3 doses of 1000 mg of arginine asparatate. By the end of the second month, there was a statistically significant improvement of erectile dysfunction in 80% of the participants. During the third month, 3 doses of 40 mg of Pycnogenol® food supplement were administered daily to each participant, together with the 3 doses of 1000 mg of arginine asparatate. By the end of the third month, there was further improvement of the erectile dysfunction condition even for some of the participants who had not shown improvement during the second month. Overall, there was a statistically significant improvement of erectile dysfunction in 92% of the treated participants.
The following statistical analysis of the results from the clinical study calculate the probability of whether the observed differences between two treatments are statistically significant at a certain level.
Dr. Romil Stanislavov and V. Nikolova of The Seminological Laboratory SBALAG in Maichin Dom, Sofia, Bulgaria investigated the possibility to overcome erectile dysfunction by increasing the amounts of endogenous NO. For this purpose, Pycnogenol® pine bark extract as it is known to stimulate nitric oxide synthase was orally administered together with L-arginine as substrate for this enzyme.
The study included 40 men aged 25 to 45 years (mean age 36.6.+−.5.3 years) with confirmed functional erectile dysfunction of at least 3 months duration, who were unable to achieve adequate erection and rigidity sufficient for vaginal penetration and completion of successful intercourse after spontaneous sexual stimulation. All patients were required to be involved in a stable, monogamous relationship with a female partner for more than 6 months.
Exclusion criteria were severe cardiovascular diseases, hypertension, renal failure, hepatic insufficiency, endocrine abnormalities, and psychiatric disorders. Patients were also excluded if they were currently or recently treated for erectile dysfunction by vasoactive medications, surgery, or any mechanical device. Concomitant use of other therapies for erectile dysfunction were not allowed. The study was approved by the Ethics Committee of Medical Research Board of the University Clinic of Sofia, Bulgaria and written consent was obtained from each participant. […]

The mark [3] stands for this setting: after 1 month, arginine aspartate (Sargenor) 3 x 1000 mg daily only, 40 patients.

Where “and” joins values, the source holds several entries; their conditions need not be identical. Equal entries are not always repeated.

Consider `CCCc1nn(C)c2c(=O)[nH]c(-c3cc(S(=O)(=O)N4CCN(C)CC4)ccc3OCC)nc12` [sildenafil], for which, in the test with postmenopausal women, the “Women reporting improved genital sensations” value is 57%.
L-arginine aspartate [Sargenor]: in test [1], the “Assessment of erection: Disturbed (weakened, delayed, hesitating, loosing), number of patients” value worked out at 42; the “Assessment of erection: Disturbed (weakened, delayed, hesitating, loosing), percent of patients” value is 84%; the “Assessment of erection: Normal, number of patients” value is given as 8; the “Assessment of erection: Normal, percent of patients” value turned out to be 16%. In addition, in test [2] (Sargenor only, 1. month), the “Responders (restored erectile function), number of patients” value was 2 and the “Responders (restored erectile function), percent of patients” value amounted to 5%. Further, in test [2] (setting [3]), the “Normal erection, D (percent distribution)” value is recorded as 5%; the “Normal erection, n (number of patients)” value is given as 2; the “Variant of disturbed erection: Delayed, D (percent distribution)” value turned out to be 25%; the “Variant of disturbed erection: Delayed, n (number of patients)” value is 10. Moreover, in test [2] (setting [3]), the “Variant of disturbed erection: Hesitating, D (percent distribution)” value is 10%; the “Variant of disturbed erection: Hesitating, n (number of patients)” value is 4; the “Variant of disturbed erection: Losing, D (percent distribution)” value is 10%; the “Variant of disturbed erection: Losing, n (number of patients)” value is listed as 4. Moreover, in test [2] (setting [3]), the “Variant of disturbed erection: Weakened, D (percent distribution)” value came out at 50% and the “Variant of disturbed erection: Weakened, n (number of patients)” value was 20. The “Participants with improvement in erectile dysfunction” value in test [2] (end of first month, 3 doses of 1000 mg arginine asparatate daily only) is “about 10%”. Besides, the “Mean time of duration (of the erection)” value in test [2] (mean (SEM), responders, Sargenor only, 1. month) stood at 2 ± 1 min. Besides, the “Mean time until response emerges” value in test [2] (mean (SEM), responders, spontaneous sexual stimulation, Sargenor only, 1. month) was 10 min and 10 ± 2 min.

These data come from patent US20050171030A1, “Relieving symptoms of erectile dysfunction and attaining sexual wellness and health of the sexual vascular system with proanthocyanidins” (priority 2000, published 2005).
